Assay results published in patent US9084798B2, “Use of lanostane and Poria extract in treating diabetes” (Sinphar Tian-Li Pharmaceutical Co., Ltd (Hangzhou), priority 2009, dated 2015).

Experiments:
[1] = test system: 3T3-L1 adipocytes; assay: 2-deoxy-glucose uptake in differentiated mature 3T3-L1 adipocytes; format: cell-based, rodent
Protocol: (§1) 3T3-L1 preadipocytes were cultured in Dulbecco's minimal essential medium (DMEM) supplemented with 100 IU/mL penicillin, 100 µg/mL streptomycin, 1% nonessential amino acid and 10% calf serum in 5% CO2 and 95% Air at 37° C. Once the cells have become fully grown, differentiation was induced by treating the cells with differentiation inducers (DMEM containing 0.5 mM 3-isobutyl-1-methylxanthane (IBMX), 1 µM dexamethasone, […], and 10% fetal bovine serum) for two days. The cells were re-fed with DMEM supplemented with 10 µg/mL insulin and 10% FBS for another two days, and then changed to 10% FBS/DMEM without insulin every 2 days for 4-6 days. At this stage, near 90% of the cells expressed the adipocyte phenotype and were ready for the experiments. Before commencing the experiments, the 3T3-L1 cells were rinsed with PBS solution first, and then cultured overnight in the serum-free and insulin-free 0.2% BSA/DMEM culture medium, so as to remove interferences from both serum and insulin.
For the experiment of testing the effects of triterpene compounds on enhancing glucose uptake by 3T3-L1 adipocytes, 3T3-L1 preadipocytes were cultured on 6-well culture dishes, and allowed to grow fully therein before being subjected to differentiation by a differentiation-inducing agent. Once the 3T3-L1 cells became matured and differentiated into adipocytes after 7-12 days, the cells were used for testing glucose uptake. Said adipocytes were firstly placed in a serum-free culture medium (0.2% BSA/DMEM) overnight, followed by cultivation for 2-6 hours in serum-free cell culture media containing different concentrations of triterpene compounds, and then rinsed once with PBS solution before undergoing cultivation in KRP buffer (20 mM HEPES, 137 mM NaCl, 4.7 mM KCl, 1.2 mM MgSO4, 1.2 mM KH2PO4, 2.5 mM CaCl2, and 2 mM pyruvate, pH 7.4 and 0.2% BSA) at 37° C. for 3 hours. Finally, 0.2 μCi/mL of 2-deoxy-D-[^14C]-glucose (2-DG, Amersham Biosciences, Little Chalfont, Bucks, U.K) and 0.2 ml of non-radioactive glucose buffer derived from 0.1 mM 2-DG were used as a substitute for KRP buffer in order to begin the experiment on glucose uptake. After allowing the experiment to run for […], the cells were removed and rinsed with PBS solution to terminate the intake of glucose. Subsequently, the cells were dissolved in 0.2 ml of 0.2% SDS, and 10 μL, of the solution with dissolved cells was transferred into UniFilter plates (Perkim-Elmer, Wellesley, Mass., USA) with filtering bases and dried in a vacuum oven at 37° C., in which each well was added with 30 μL of counting solution, and then analyzed by using a micro-disk liquid scintillation analyzer (TopCount, Packard NXT, Packard BioScience Company, Meriden, Conn., USA). The glucose concentration accumulated in the cells was calculated, and divided by the protein concentration, so as to obtain a glucose uptake rate indicated as nanomoles of glucose uptake in every microgram of cell proteins at every minute (nmol/min/mg). The protein concentration was determined by using the standard Bicinchoninic acid (BCA) protein assay kit (Pierce, Rockford, Ill., USA). The uptake of non-specific glucose was determined by adding 0.2 μCi of L-[14C]-glucose, and then used to substract from the value obtained by the analyzer so as to get a value for the uptake of specific glucose. Therefore, the effects of different concentrations of triterpene compounds on the glucose uptake by 3T3-L1 adipocytes could be determined.

[2] = test system: 3T3-L1 preadipocytes; assay: 2-deoxy-glucose uptake in 3T3-L1 preadipocytes; format: cell-based, rodent
Protocol: as §1, with “Before commencing the experiments, the 3T3-L1 cells were rinsed with PBS solution first, and then cultured overnight in the serum-free and insulin-free 0.2% BSA/DMEM culture medium, so as to remove interferences from both serum and insulin.” left out
For the experiment of testing the effects of triterpene compounds on enhancing glucose uptake by 3T3-L1 adipocytes, 3T3-L1 preadipocytes were cultured on 6-well culture dishes, and allowed to grow fully therein before being subjected to differentiation by a differentiation-inducing agent. […] The glucose concentration accumulated in the cells was calculated, and divided by the protein concentration, so as to obtain a glucose uptake rate indicated as nanomoles of glucose uptake in every microgram of cell proteins at every minute (nmol/min/mg). […]

[3] = test system: HA-GLUT4-GFP; assay: GLUT4 translocation to plasma membrane, HA-GLUT4-GFP fluorescence ratio; format: cell-based, rodent; settings: 1.0 μM of PA, 2 hours; rhodamine/GFP fluorescence ratio
[4] = test system: 3T3-L1 adipocytes; assay: release of glycerol from 3T3-L1 adipocytes (glycerol assay kit); format: cell-based, rodent; settings: 24 hours after administering different doses of PA
Protocol: (§2) For the experiment of testing the effects of triterpene compounds on the accumulation of triglycerides and the release of glycerol in 3T3-L1 adipocytes, the differentiated and mature 3T3-L1 adipocytes were cultivated overnight in a serum-free cell culture medium, and then further cultivated in serum-free cell culture media containing different concentrations of triterpene compounds for 24 hours. The culture media were collected and tested for the release of glycerol by using a glycerol assay kit (Randox Laboratories, Antrim, UK), to determine whether different concentrations of triterpene compounds had any effects on the release of glycerol from lipid breakdown in 3T3-L1 adipocytes. The level of triglycerides in the adipocytes were determined by Oil-Red O staining (Ramirez-Zacarias, J. L. et. al.; Histochemistry 97, (6), 493-497, 1992). The oil droplets formed by the accumulation of lipids in the cells were stained, rinsed twice with 60% isopropanol, and then extracted in 100% isopropanol before being quantified at the absorbance of 490 nm. The readings were compared with that from the adipocytes without being given triterpene compounds, in order to evaluate the effects of different concentrations of triterpene compounds on the accumulation of triglycerides in the adipocytes.

[5] = test system: GLUT4; assay: GLUT4 translocation to plasma membrane, centrifugation fractions and Western blot; format: cell-based, rodent; settings: 2 hours
Protocol: In the mechanism of insulin enhancing glucose uptake by adipocytes or muscle cells, the translocation of GLUT4 from intracellular organelles to plasma membrane (PM) actually plays a vital rol therein, thus the effects of triterpene compounds on enhancing the translocation of GLUT4 to plasma membrane in 3T3-L1 adipocytes were tested here. The differentiated and mature 3T3-L1 adipocytes were cultured overnight in a serum-free cell culture medium, and then further cultured in serum-free cell culture media containing different concentrations of triterpene compounds for 2 hours. This was followed by high-speed centrifugation at different rotation speeds (16,000 g-200,000 g) in order to separate the cellular plasma membrane fraction from the low density microsome (LDM) [Liu, L. Z. et. al.; Mol. Biol. Cell 17, (5), 2322-2330, 2006]. Western blot analysis was performed by using a monoclonal antibody for GLUT4, so as to observe whether there are any effects from different concentrations of triterpene compounds on the translocation of GLUT4 from cellular LDM to PM in 3T3-L1 adipocytes.

[6] = test system: GLUT4; assay: GLUT4 protein expression by Western blot in 3T3-L1 adipocytes; format: cell-based, rodent; settings: different doses of PA for 24 hours
Protocol: For the experiment of testing the effects of triterpene compounds on enhancing the GLUT protein expression in 3T3-L1 adipocytes, the aforesaid differentiated and mature 3T3-L1 adipocytes were cultured overnight in a serum-free cell culture medium, and then further cultured in serum-free cell culture media containing different concentrations of triterpene compounds for 24 hours. This was followed by rinsing the cells with PBS solution, and allowing the cells to lyse in 0.2 mL lysis buffer (1% NP-40, 150 mM NaCl, 0.1% SDS, 50 mM Tris-HCl pH 7.6, 10 mM EDTA, 0.5% deoxycholate, 1 mM PMSF, 1 mM Na3VO4, 10 mM NaF, 10 mM β-glycerophosphate, 10 g/mL protease inhibitor and phosphotase inhibitor cocktails) for 30 min at 4° C. An equal amount of protein from each sample was separated by sodium dodecyl sulfate (SDS)-10% polyacrylamide gel electrophoresis (PAGE) and transblotted onto polyvinylidene difluoride (PVDF) membranes (Millipore, Bedford, Mass., USA). […] Each sample of proteins was treated with a chemiluminescence kit (ECL, Amersham, U.K.) before being exposed and processed into X-ray film, and then quantitatively analyzed by using computer software.

[7] = test system: 3T3-L1 adipocytes with suppressed GLUT4 expression (shG4-30); assay: glucose uptake in adipocytes with suppressed mRNA expression of GLUT4 (shG4-30); format: cell-based, rodent; settings: different doses of PA
Description: A viral carrier (TRCN0000043630 shRNA, Genomics Research Center, Academia Sinica, R.O.C.) carrying GLUT4-inhibiting RNA was used to infect the 3T3-L1 preadipocytes (shG4-30), in order to create a gene expression having consistent inhibition of GLUT4 expression, and the cell strain was allowed to further differentiate, from which the differentiated adipocytes were used for the experiments.
For the experiment of testing the effects of triterpene compounds on enhancing glucose uptake by 3T3-L1 adipocytes, 3T3-L1 preadipocytes were cultured on 6-well culture dishes, and allowed to grow fully therein before being subjected to differentiation by a differentiation-inducing agent. […] Subsequently, the cells were dissolved in 0.2 ml of 0.2% SDS, and 10 μL, of the solution with dissolved cells was transferred into UniFilter plates (Perkim-Elmer, Wellesley, Mass., USA) with filtering bases and dried in a vacuum oven at 37° C., in which each well was added with 30 μL of counting solution, and then analyzed by using a micro-disk liquid scintillation analyzer (TopCount, Packard NXT, Packard BioScience Company, Meriden, Conn., USA). The glucose concentration accumulated in the cells was calculated, and divided by the protein concentration, so as to obtain a glucose uptake rate indicated as nanomoles of glucose uptake in every microgram of cell proteins at every minute (nmol/min/mg). […]

[8] = test system: GLUT4; assay: GLUT4 mRNA expression by real-time Q-PCR in 3T3-L1 adipocytes; format: cell-based, rodent; settings: 1 μM of PA, 24 hours
Protocol: Real-time Q-PCR was performed in order to evaluate mRNA expression of GLUT proteins in 3T3-L1 adipocytes under different concentrations of triterpene compounds. Firstly, the fully differentiated 3T3-L1 adipocytes were mixed with different concentrations of triterpene compounds and left for 24 hours, before removing the cell culture medium and using the Trizol buffer (Invitrogen, Irvine, Calif., USA) to obtain total RNA from the cells. Afterwards, 1 μg of RNA sample was taken therefrom, and a High-Capacity cDNA Reverse Transcription Kit (Applied Biosystems, Darmstadt, Germany) was used to reverse transcribe mRNA in the sample into cDNA. Primers were specifically designed for GLUT1, GLUT4, and β-actin, and the SYBR Green Q-PCR analyzer (Applied Biosystems, Foster City, Calif., USA) was used to expand the gene for detection (Glut1 & 4) and reference gene (β-actin), before relative gene expression values were calculated by the ΔΔCT method using the StepOne v2.0 software (Applied Biosystems).

[9] = test system: 3T3-L1 adipocytes; assay: accumulation of triglycerides in 3T3-L1 adipocytes (Oil-Red O staining); format: cell-based, rodent; settings: 24 hours after administering different doses of PA
Protocol: as §2

[10] = test system: in vitro adipocytes; settings: cited from earlier work
[11] = test system: mice; settings: cited from earlier work
[12] = 0.01 μM, two hours after giving the compound, versus untreated control

C=C(CC[C@@H](C(=O)O)[C@H]1[C@H](O)C[C@@]2(C)C3=CC[C@H]4C(C)(C)C(=O)CC[C@]4(C)C3=CC[C@]12C)C(C)C [PPA, polyporenic acid C]
glucose uptake increased to [1, 12]: 147.9%

C=C(CC[C@@H](C(=O)O)[C@H]1[C@H](O)C[C@@]2(C)C3=C(CC[C@]12C)[C@@]1(C)CC[C@H](OC(C)=O)C(C)(C)[C@@H]1CC3)C(C)C [PA, pachymic acid]
enhancement of glucose uptake (FIG. 4) [2]: not for preadipocytes
translocation of GLUT4 to plasma membrane elevated (FIG. 8B) [3]: 2.71 fold
release of glycerol lowered to [4]: approximately 70 % of the original level
amount of GLUT4 in the plasma membrane increased to (FIG. 8A) ([5]; 0.01 μM of PA): 141%
amount of GLUT4 in the plasma membrane increased to (FIG. 8A) ([5]; 1 μM of PA): 328%
protein expression of GLUT4 (FIG. 5) [6]: effective for enhancing the protein expression of GLUT4
glucose uptake in adipocytes with low expression of GLUT4 (FIG. 7B) [7]: did not greatly enhance the glucose uptake
gene expression of GLUT4 elevated to (FIG. 6) [8]: 228%
glucose uptake increased to [1, 12]: 165.89%
glucose uptake increased to ([1]; PA at 1 μM, acting two hours): 209.84%
enhancement of glucose uptake (FIG. 4) ([1]; differentiated adipocytes): only effective for enhancing glucose uptake in differentiated adipocytes
accumulation of triglycerides (FIG. 9) [9]: exceeded 137%

insulin [reference compound]
effect on glucose uptake ([1]; 100 nM insulin): effective for increasing glucose uptake

C=C(CC[C@@H](C(=O)O)[C@H]1[C@H](O)C[C@@]2(C)C3=C(CC[C@]12C)[C@@]1(C)CC[C@H](O)C(C)(C)[C@@H]1CC3)C(C)C [TA, tumulosic acid]
glucose uptake increased to [1, 12]: 142.5%

CC(C)=CCC[C@@H](C(=O)O)[C@H]1CC[C@@]2(C)C3=CC[C@H]4C(C)(C)[C@@H](O)CC[C@]4(C)C3=CC[C@]12C [dehydrotrametenolic acid]
effective concentration [10]: 10^−5 M
effective dose ([11]; mice): 110 mg/kg
effective dose for use in the human body ([11]; researchers' conclusion from the mouse dose): more than 700 mg

O=C(CCc1ccc(O)cc1)c1c(O)cc(O)cc1O [phloretin (PT), phloretin, reference compound]
glucose uptake after phloretin (FIG. 4) [2]: significantly inhibited
glucose uptake after phloretin (FIG. 4) ([1]; adipocytes): significantly inhibited
